Reference: ChEMBL document CHEMBL1146743, “Three new cyclostellettamines, which inhibit histone deacetylase, from a marine sponge of the genus Xestospongia” (Bioorg Med Chem Lett, 2004)

Key:
P388 = assay: Cytotoxicity against mouse leukemia (P388) cell line; format: functional, cell-based
Histone deacetylase = assay: Inhibitory activity against histone deacetylase (HDAC); format: protein assay, Homo sapiens
3Y1 cell line = assay: Inhibitory activity against rat fibroblast (3Y1) cell line; format: functional, cell-based
HeLa = assay: Cytotoxicity against human cervix carcinoma (HeLa) cell line; format: functional, cell-based

| Structure (SMILES) | IC50 (P388) [nM] | IC50 (Histone deacetylase) [µM] | IC50 (3Y1 cell line) [µM] | IC50 (HeLa) [nM] |
| --- | --- | --- | --- | --- |
| C1=C/CCCC[n+]2cccc(c2)CCCCCCCCCCCC[n+]2cccc(c2)CCCCCC/1.O=C([O-])C(F)(F)F.O=C([O-])C(F)(F)F | 2100 | 61 | 7.2 | 1800 |
| C1=C/CCCCCC[n+]2cccc(c2)CCCCCCCCCCCCC[n+]2cccc(c2)CCCCCC/1.O=C([O-])C(F)(F)F.O=C([O-])C(F)(F)F | 1300 | 30 | 3.2 | 1800 |
| C1=C/CCC[n+]2cccc(c2)CCCCCCCCCCCC[n+]2cccc(c2)CCCCCC/1.O=C([O-])C(F)(F)F.O=C([O-])C(F)(F)F | 2700 | 80 | 11 | 2800 |
| C1=C/CCCCCC[n+]2cccc(c2)CCCCCCCCCCCC[n+]2cccc(c2)CCCCCC/1.O=C([O-])C(F)(F)F.O=C([O-])C(F)(F)F | 1300 | 17 | 4.3 | 600 |
